# In patent US8993565B2, “(6-oxo-1,6-dihydropyrimidin-2-yl)amide derivatives, preparation thereof and pharmaceutical use thereof as AKT(PKB) phosphorylation inhibitors” (Sanofi, priority 2009, dated 2015):
# System: AKT protein phosphorylated on serine 473 (P-AKT-S473)
# Assay: Study of pAKT expression in PC3 human prostate carcinoma cells measured by the MSD Multi-spot Biomarker Detection technique (Test B)
# Assay type: cell-based
# Details: PC-3, inhibition of AKT phosphorylation (P-AKT-S473), MSD sandwich immunoassay, 1 to 2 h incubation, absolute IC50, mean of 2 experiments
# Description: The inhibitory activity of the molecules on AKT phosphorylation is measured either by western blotting using the technique described below, or by the MSD Multi-spot Biomarker detection technique from Meso Scale Discovery also described below.
# Study of pAKT Expression in PC3 Human Prostate Carcinoma Cells Measured by the MSD Multi-Spot Biomarker Detection Technique from Meso Scale Discovery (Test B):
# The primary antibody specific for P-AKT-S473 (Kit #K151CAD) is coated on to an electrode in each well of the 96-well plates of the MSD, kit: after the addition of a protein lysate to each well, the signal is visualised by adding a secondary detection antibody labelled with an electrochemoluminescent compound. The procedure followed is that described in the kit.
# On day 2, the cells are incubated in the presence or absence of the test products for 1 to 2 h at 37° C. in the presence of 5% of CO2. The molecules, diluted in dimethyl sulphoxide (DMSO Sigma #D2650), are added from a 20-times concentrated stock solution, the final percentage of DMSO being 0.1%. The molecules are tested either at a single concentration of less than or equal to 10 μM, or at increasing concentrations in a range that can extend from less than 1 nM to 10 μM.
# After this incubation, the cells are lysed for the preparation of the proteins. […] At this stage, the plates containing the lysates can be stored at −20° C. or at −80° C.
# The wells of the 96-well plates of the MSD kit are saturated for 1 h at ambient temperature with the blocking solution of the MSD kit. Four washes are carried out with 150 μl of Tris Wash Buffer of the MSD kit. The lysates previously prepared are transferred into the 96-well multi-spot plates of the MSD kit and incubated for 1 h at ambient temperature, with shaking. Four washes are carried out with 150 μl of Tris Wash Buffer of the MSD kit. 25 μl of the MSD sulfo-tag detection antibody solution are added to the wells and incubated for 1 h at ambient temperature, with shaking. Four washes are carried out with 150 μl of Tris Wash Buffer of the MSD kit. 150 μl of Read Buffer of the MSD kit are added to the wells and the plates are read immediately on the S12400 instrument from Meso Scale Discovery.
# The instrument measures a signal for each well. Wells without cells and containing the lysis buffer serve to determine the background noise that will be subtracted from all the measurements (min). The wells containing cells in the absence of product and in the presence of 0.1% DMSO are considered to be the 100% signal (max). The percentage inhibition is calculated for each concentration of test product according to the following formula: (1-((test-min)(max-min)))×100.
# 2 independent experiments make it possible to calculate the mean of the IC50 values.
row,SMILES,IC50
1,"Cn1c(CC(=O)Nc2ccc(F)c(C(F)F)c2)nc(N2CCOCC2)cc1=O [Example 97, N-[3-(difluoromethyl)-4-fluorophenyl]-2-[1-methyl-4-(morpholin-4-yl)-6-oxo-1,6-dihydropyrimidin-2-yl]acetamide]",260 nM
2,"Cn1c(CC(=O)Nc2cc(F)c(F)c(F)c2)nc(N2CCOCC2)cc1=O [Example 98, 2-(1-methyl-4-morpholin-4-yl-6-oxo-1,6-dihydropyrimidin-2-yl)-N-(3,4,5-trifluorophenyl)acetamide]",219 nM
3,"Cn1ccc2c(NC(=O)Cc3nc(N4CCOCC4)cc(=O)[nH]3)cccc21 [Example 99, N-(1-methyl-1H-indol-4-yl)-2-[4-(morpholin-4-yl)-6-oxo-1,6-dihydropyrimidin-2-yl]acetamide]",666 nM
4,"Cc1cccc2c1CCN2C(=O)Cc1nc(N2CCOCC2)cc(=O)[nH]1 [Example 100, 2-[2-(4-methyl-2,3-dihydro-1H-indol-1-yl)-2-oxoethyl]-6-(morpholin-4-yl)pyrimidin-4(3H)-one]",3 nM
5,"CC1CN(C(=O)Cc2nc(N3CCOCC3)cc(=O)[nH]2)c2ccccc21 (stereo not shown) [Example 101, 2-[2-(3-methyl-2,3-dihydro-1H-indol-1-yl)-2-oxoethyl]-6-(morpholin-4-yl)pyrimidin-4(3H)-one]",13 nM
6,"O=C(Cc1nc(N2CCOCC2)cc(=O)[nH]1)N1CCc2cc(F)ccc21 [Example 103, 2-[2-(5-Fluoro-2,3-dihydroindol-1-yl)-2-oxoethyl]-6-morpholin-4-yl-3H-pyrimidin-4-one]",7 nM
7,"O=C(Cc1nc(N2CCOCC2)cc(=O)[nH]1)Nc1cccc2sccc12 [Example 105, N-(1-benzothiophen-4-yl)-2-[4-(morpholin-4-yl)-6-oxo-1,6-dihydropyrimidin-2-yl]acetamide]",15 nM
8,"O=C(Cc1nc(N2CCOCC2)cc(=O)[nH]1)Nc1ccccc1OCCN1CCCCC1 [Example 107, 2-[4-(morpholin-4-yl)-6-oxo-1,6-dihydropyrimidin-2-yl]-N-{2-[2-(piperidin-1-yl)ethoxy]phenyl}acetamide]",24 nM
9,"COCCOc1ccccc1NC(=O)Cc1nc(N2CCOCC2)cc(=O)[nH]1 [Example 108, N-[2-(2-methoxyethoxy)phenyl]-2-[4-(morpholin-4-yl)-6-oxo-1,6-dihydropyrimidin-2-yl]acetamide]",56 nM
10,"Cn1c(CC(=O)N2CCc3c(O)cccc32)nc(N2CCOCC2)cc1=O [Example 109, 2-[2-(4-hydroxy-2,3-dihydro-1H-indol-1-yl)-2-oxoethyl]-3-methyl-6-(morpholin-4-yl)pyrimidin-4(3H)-one]",43 nM
11,"O=C(Cc1nc(N2CCOCC2)cc(=O)[nH]1)Nc1ccccc1OCCN1CCCC1 [Example 112, 2-[4-(morpholin-4-yl)-6-oxo-1,6-dihydropyrimidin-2-yl]l-N-{2-[2-(pyrrolidin-1-yl)ethoxy]phenyl}acetamide]",23 nM
12,"O=C(Cc1nc(N2CCOCC2)cc(=O)[nH]1)Nc1ccccc1OCc1cccnc1 [Example 113, 2-[4-(morpholin-4-yl)-6-oxo-1,6-dihydropyrimidin-2-yl]-N-[2-(pyridin-3-ylmethoxy)phenyl]acetamide]",664 nM
13,"C[C@H]1Cc2ccccc2N1C(=O)Cc1nc(N2CCOCC2)cc(=O)[nH]1 [Example 117, 2-{2-[(2S)-2-methyl-2,3-dihydro-1H-indol-1-yl]-2-oxoethyl}-6-(morpholin-4-yl)pyrimidin-4(3 H)-one]",19 nM
14,"C[C@@H]1Cc2ccccc2N1C(=O)Cc1nc(N2CCOCC2)cc(=O)[nH]1 [Example 118, 2-{2-[(2R)-2-methyl-2,3-dihydro-1H-indol-1-yl]-2-oxoethyl}-6-(morpholin-4-yl)pyrimidin-4(3H)-one]",12 nM
15,"NC(=O)C1Cc2ccccc2N1C(=O)Cc1nc(N2CCOCC2)cc(=O)[nH]1 (stereo not shown) [Example 122, 1-{[4-(morpholin-4-yl)-6-oxo-1,6-dihydropyrimidin-2-yl]acetyl}-2,3-dihydro-1H-indole-2-carboxamide]",503 nM
16,"C[C@@H]1CN(C(=O)Cc2nc(N3CCOCC3)cc(=O)[nH]2)c2ccccc21 [Example 125, 2-{2-[(3S)-3-methyl-2,3-dihydro-1H-indol-1-yl]-2-oxoethyl}-6-(morpholin-4-yl)pyrimidin-4(3 H)-one]",16 nM

row,SMILES,IC50
1,"C[C@H]1CN(C(=O)Cc2nc(N3CCOCC3)cc(=O)[nH]2)c2ccccc21 [Example 126, 2-{2-[(3R)-3-methyl-2,3-di hydro-1H-indol-1-yl]-2-oxoethyl}-6-(morpholin-4-yl)pyrimidin-4(3H)-one]",57 nM
2,"Cn1c(CC(=O)N2CCc3c2ccc(F)c3F)nc(N2CCOCC2)cc1=O [Example 128, 2-[2-(4,5-difluoro-2,3-dihydro-1H-indol-1-yl)-2-oxoethyl]-3-methyl-6-(morpholin-4-yl)pyrimidin-4(3H)-one]",69 nM
3,"O=C(Cc1nc(N2CCOCC2)cc(=O)[nH]1)N1Cc2ccccc2C1 [Example 129, 2-[2-(1,3-dihydro-2H-isoindol-2-yl)-2-oxoethyl]-6-(morpholin-4-yl)pyrimidin-4(3H)-one]",1000 nM
4,"O=C(Cc1nc(N2CCOCC2)cc(=O)[nH]1)Nc1ccc(F)cc1OCC1CCNCC1 [Example 133, N-[4-fluoro-2-(piperidin-4-ylmethoxy)phenyl]-2-[4-(morpholin-4-yl)-6-oxo-1,6-dihydropyrimidin-2-yl]acetamide]",174 nM
5,"O=C(Cc1nc(N2CCOCC2)cc(=O)[nH]1)N1CCc2cc(Cl)ccc21 [Example 134, 2-[2-(5-Chloro-2,3-dihydroindol-1-yl)-2-oxoethyl]-6-morpholin-4-yl-3H-pyrimidin-4-one]",124 nM
6,"O=C(Cc1nc(N2CCOCC2)cc(=O)[nH]1)N1CCc2c(Br)cccc21 [Example 135, 2-[2-(4-Bromo-2,3-dihydroindol-1-yl)-2-oxoethyl]-6-morpholin-4-yl-3H-pyrimidin-4-one]",1 nM
7,"CN(C)C[C@@H]1CN(C(=O)Cc2nc(N3CCOCC3)cc(=O)[nH]2)c2ccccc21 [Example 137, 2-(2-{(3R)-3-[(dimethylamino)methyl]-2,3-dihydro-1H-indol-1-yl}-2-oxoethyl)-6-(morpholin-4-yl)pyrimidin-4(3H)-one]",68 nM
8,"COCCOc1cc(F)ccc1NC(=O)Cc1nc(N2CCOCC2)cc(=O)[nH]1 [Example 138, N-[4-fluoro-2-(2-methoxyethoxy)phenyl]-2-[4-(morpholin-4-yl)-6-oxo-1,6-dihydropyrimidin-2-yl]acetamide]",35 nM
9,"O=C(Cc1nc(N2CCOCC2)cc(=O)[nH]1)Nc1cccc2[nH]cnc12 [Example 139, N-(1H-benzimidazol-4-yl)-2-[4-(morpholin-4-yl)-6-oxo-1,6-dihydropyrimidin-2-yl]acetamide]",3000 nM
10,"COC(=O)c1cccc(NC(=O)Cc2nc(N3CCOCC3)cc(=O)[nH]2)c1O [Example 140, methyl 2-hydroxy-3-(([4-(morpholin-4-yl)-6-oxo-1,6-dihydropyrimidin-2-yl]acetyl)amino)benzoate]",302 nM
11,"COc1cccc2c1CCN2C(=O)Cc1nc(N2CCOCC2)cc(=O)[nH]1 [Example 141, 2-[2-(4-Methoxy-2,3-dihydroindol-1-yl)-2-oxoethyl]-6-morpholin-4-yl-3H-pyrimidin-4-one]",60 nM
12,"O=C(Cc1nc(N2CCOCC2)cc(=O)[nH]1)Nc1cccc(Br)c1O [Example 142, N-(3-bromo-2-hydroxyphenyl)-2-[4-(morpholin-4-yl)-6-oxo-1,6-dihydropyrimidin-2-yl]acetamide]",22 nM
13,"COC(=O)c1cc(F)ccc1NC(=O)Cc1nc(N2CCOCC2)cc(=O)[nH]1 [Example 144, Methyl 5-fluoro-2-({[4-(morpholin-4-yl)-6-oxo-1,6-dihydropyrimidin-2-yl]acetyl}amino)benzoate]",432 nM
14,"O=C(Cc1nc(N2CCOCC2)cc(=O)[nH]1)N1CCc2ncccc21 [Example 146, 2-[2-(2,3-dihydro-1H-pyrrolo[3,2-b]pyridin-1-yl)-2-oxoethyl]-6-(morpholin-4-yl)pyrimidin-4(3H)-one]",180 nM
15,"O=C(Cc1nc(N2CCOCC2)cc(=O)[nH]1)N1CCc2cc(F)c(F)cc21 [Example 147, 2-[2-(5,6-Difluoro-2,3-dihydroindol-1-yl)-2-oxoethyl]-6-morpholin-4-yl-3H-pyrimidin-4-one]",4 nM
